Reference: patent US6583180B2, “Glucocorticoid receptor modulators” (Abbott Laboratories, priority 2001, dated 2003)

Target: T1, Human glucocorticoid receptors (Homo sapiens, UniProt P04150)
T1 construct: made in house; host or cells: Sf9 insect cells, recombinant baculovirus (BAC-TO-BAC)
T1 sequence (P04150 1-777): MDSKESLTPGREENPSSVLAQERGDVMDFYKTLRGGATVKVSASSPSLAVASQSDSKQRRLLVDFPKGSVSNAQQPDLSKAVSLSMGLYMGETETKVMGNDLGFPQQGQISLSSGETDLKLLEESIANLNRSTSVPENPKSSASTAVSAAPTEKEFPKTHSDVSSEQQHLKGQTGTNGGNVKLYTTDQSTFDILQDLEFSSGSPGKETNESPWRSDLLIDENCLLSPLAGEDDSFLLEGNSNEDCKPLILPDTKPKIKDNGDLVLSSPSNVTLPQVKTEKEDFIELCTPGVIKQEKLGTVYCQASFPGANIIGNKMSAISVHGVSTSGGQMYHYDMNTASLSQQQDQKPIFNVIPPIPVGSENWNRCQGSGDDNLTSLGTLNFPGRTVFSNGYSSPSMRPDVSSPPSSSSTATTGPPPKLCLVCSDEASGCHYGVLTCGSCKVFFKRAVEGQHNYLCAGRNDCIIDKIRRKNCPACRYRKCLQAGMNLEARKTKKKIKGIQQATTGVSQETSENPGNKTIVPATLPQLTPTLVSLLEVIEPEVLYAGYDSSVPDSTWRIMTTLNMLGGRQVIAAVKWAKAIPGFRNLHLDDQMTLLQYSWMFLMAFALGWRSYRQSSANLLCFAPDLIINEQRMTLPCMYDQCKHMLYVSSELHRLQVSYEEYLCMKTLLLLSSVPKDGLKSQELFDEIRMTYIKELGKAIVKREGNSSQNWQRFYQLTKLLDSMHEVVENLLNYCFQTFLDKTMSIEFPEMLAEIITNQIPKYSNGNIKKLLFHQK
Assay: Radioligand filter binding assay, displacement of 3[H]-dexamethasone from hGR
Details: read-out: GR Binding (% Inhibition at 1.7 μM)
Summary of the method: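 Recombinant hGR extract from baculovirus-infected Sf9 cells (final ~1 nM receptor) incubated with ³H-dexamethasone and test compound dilutions in duplicate, EDTA/phosphate pH 8 buffer with MTG, overnight (15-20 h) at +4° C. Bound label collected on PEI-treated GF/B filters and scintillation-counted; IC50 from four-parameter fit of corrected cpm.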

SMILES | inhibition at 1.7 µM [%]
Cc1c(NS(C)(=O)=O)cccc1N(Cc1ccc(Oc2ccc(Cl)c(OCC(=O)O)c2)cc1)Cc1ccc(Cl)cc1Cl [Example 309, (2-chloro-5-(4-(((2,4-dichlorobenzyl)(2-methyl-3-((methylsulfonyl)amino)phenyl)amino)methyl)phenoxy)phenoxy)acetic acid] | 97.4
Cc1c(NS(C)(=O)=O)cccc1N(Cc1ccc(Oc2ccc(Cl)c(OCC(=O)O)c2)cc1)Cc1ccc(Cl)cc1F [Example 310, (2-chloro-5-(4-(((4-chloro-2-fluorobenzyl)(2-methyl-3-((methylsulfonyl)amino)phenyl)amino)methyl)phenoxy)phenoxy)acetic acid] | 97.5
Cc1c(NS(C)(=O)=O)cccc1N(Cc1ccc(Oc2ccc(Cl)c(OCC(=O)O)c2)cc1)Cc1ccc(F)cc1Cl [Example 311, (2-chloro-5-(4-(((2-chloro-4-fluorobenzyl)(2-methyl-3-((methylsulfonyl)amino)phenyl)amino)methyl)phenoxy)phenoxy)acetic acid] | 97.4
Cc1c(NS(C)(=O)=O)cccc1N(Cc1ccc(Oc2ccc(Cl)c(OCC(=O)O)c2)cc1)Cc1ccc(Cl)cc1Br [Example 312, (5-(4-(((2-bromo-4-chlorobenzyl)(2-methyl-3-((methylsulfonyl)amino)phenyl)amino)methyl)phenoxy)-2-chlorophenoxy)acetic acid] | 97.3
Cc1c(NS(C)(=O)=O)cccc1N(Cc1ccc(Oc2ccc(Cl)c(OCC(=O)O)c2)cc1)Cc1ccc(F)c(F)c1 [Example 313, (2-chloro-5-(4-(((3,4-difluorobenzyl)(2-methyl-3-((methylsulfonyl)amino)phenyl)amino)methyl)phenoxy)phenoxy)acetic acid] | 96.3
Cc1c(NS(C)(=O)=O)cccc1N(Cc1ccc(Oc2ccc(Cl)c(OCC(=O)O)c2)cc1)Cc1ccc(C(=O)c2ccccc2)cc1 [Example 314, (5-(4-(((4-benzoylbenzyl)(2-methyl-3-((methylsulfonyl)amino)phenyl)amino)methyl)phenoxy)-2-chlorophenoxy)acetic acid] | 96.6
Cc1c(NS(C)(=O)=O)cccc1N(Cc1ccc(Oc2ccc(Cl)c(OCC(=O)O)c2)cc1)Cc1ccc(Br)cc1F [Example 315, (5-(4-(((4-bromo-2-fluorobenzyl)(2-methyl-3-((methylsulfonyl)amino)phenyl)amino)methyl)phenoxy)-2-chlorophenoxy)acetic acid] | 97
Cc1c(NS(C)(=O)=O)cccc1N(Cc1ccc(Oc2ccc(Cl)c(OCC(=O)NCC(=O)O)c2)cc1)Cc1ccc(F)cc1F [Example 316, N-((2-chloro-5-(4-(((2,4-difluorobenzyl)(2-methyl-3-((methylsulfonyl)amino)phenyl)amino)methyl)phenoxy)phenoxy)acetyl)glycine] | 96.3
Cc1c(NS(C)(=O)=O)cccc1N(Cc1ccc(Oc2ccc(Cl)c(OCC(=O)NCCC(=O)O)c2)cc1)Cc1ccc(F)cc1F [Example 317, N-((2-chloro-5-(4-(((2,4-difluorobenzyl)(2-methyl-3-((methylsulfonyl)amino)phenyl)amino)methyl)phenoxy)phenoxy)acetyl)-beta-alanine] | 96.5
Cc1c(NS(C)(=O)=O)cccc1N(Cc1ccc(Oc2ccc(Cl)c(OCC(=O)NCCCC(=O)O)c2)cc1)Cc1ccc(F)cc1F [Example 318, 4-(((2-chloro-5-(4-(((2,4-difluorobenzyl)(2-methyl-3-((methylsulfonyl)amino)phenyl)amino)methyl)phenoxy)phenoxy)acetyl)amino)butanoic acid] | 95.1
Cc1c(NS(C)(=O)=O)cccc1N(Cc1ccc(Oc2ccc(Cl)c(OCCCC(=O)NCCCC(=O)O)c2)cc1)Cc1ccc(F)cc1F [Example 320, 4-((4-(2-chloro-5-(4-(((2,4-difluorobenzyl)(2-methyl-3-((methylsulfonyl)amino)phenyl)amino)methyl)phenoxy)phenoxy)butanoyl)amino)butanoic acid] | 96.8

Other lines, results leading:

inhibition at 1.7 µM [%] | SMILES
89.9 | Cc1c(NS(C)(=O)=O)cccc1N(Cc1ccccc1)Cc1ccc(Oc2cccc(OCCCC(=O)N3CCC[C@H]3C(=O)O)c2)cc1 [Example 282, 1-[4-(3-{4-[(benzyl{2-methyl-3-[(methylsulfonyl)amino]phenyl}amino)methyl]phenoxy}phenoxy)butanoyl]proline]
89.7 | Cc1c(NS(C)(=O)=O)cccc1N(Cc1ccccc1)Cc1ccc(Oc2cccc(OCC3(C)COC3)c2)cc1 [Example 283, N-{3-[benzyl(4-{3-[(3-methyloxetan-3-yl)methoxy]phenoxy}benzyl)amino]-2-methylphenyl}methanesulfonamide]
89.6 | Cc1c(NS(C)(=O)=O)cccc1N(Cc1ccccc1)Cc1ccc(Oc2cccc(OCC3CC3C(=O)O)c2)cc1 (centres unmarked) [Example 284, 2-[(3-{4-[(benzyl{2-methyl-3-[(methylsulfonyl)amino]phenyl}amino)methyl]phenoxy}phenoxy)methyl]cyclopropanecarboxylic acid]
89.7 | Cc1c(NS(C)(=O)=O)cccc1N(Cc1ccccc1)Cc1ccc(Oc2cccc(OC[C@H](O)CO)c2)cc1 [Example 285, N-(3-{benzyl[4-(3-{[(2R)-2,3-dihydroxypropyl]oxy}phenoxy)benzyl]amino}-2-methylphenyl)methanesulfonamide]
92.6 | Cc1c(NS(C)(=O)=O)cccc1N(Cc1ccccc1)Cc1ccc(Oc2cccc(OC3CCC(C(=O)O)CC3)c2)cc1 (centres unmarked) [Example 286, 4-(3-{4-[(benzyl{2-methyl-3-[(methylsulfonyl)amino]phenyl}amino)methyl]phenoxy}phenoxy)cyclohexanecarboxylic acid]
89.2 | Cc1c(NS(C)(=O)=O)cccc1N(Cc1ccccc1)Cc1ccc(Oc2cccc(OC3CCOCC3)c2)cc1 [Example 287, N-[3-(benzyl{4-[3-(tetrahydro-2H-pyran-4-yloxy)phenoxy]benzyl}amino)-2-methylphenyl]methanesulfonamide]
89.8 | Cc1c(NS(C)(=O)=O)cccc1N(Cc1ccccc1)Cc1ccc(Oc2cccc(OC3CCOC3)c2)cc1 (centres unmarked) [Example 288, N-[3-(benzyl{4-[3-(tetrahydrofuran-3-yloxy)phenoxy]benzyl}amino)-2-methylphenyl]methanesulfonamide]
87.8 | Cc1c(NS(C)(=O)=O)cccc1N(Cc1ccccc1)Cc1ccc(Oc2cccc(OC[C@@H]3CCCN3C)c2)cc1 [Example 289, N-(3-{benzyl[4-(3-{[(2S)-1-methylpyrrolidin-2-yl]methoxy}phenoxy)benzyl]amino}-2-methylphenyl)methanesulfonamide]
89.1 | Cc1c(NS(C)(=O)=O)cccc1N(Cc1ccccc1)Cc1ccc(Oc2cccc(OCc3cccnc3)c2)cc1 [Example 290, N-[3-(benzyl{4-[3-(pyridin-3-ylmethoxy)phenoxy]benzyl}amino)-2-methylphenyl]methanesulfonamide]
87.7 | Cc1c(NS(C)(=O)=O)cccc1N(Cc1ccccc1)Cc1ccc(Oc2cccc(OC[C@@H]3CCCN3)c2)cc1 [Example 291, N-{3-[benzyl(4-{3-[(2S)-pyrrolidin-2-ylmethoxy]phenoxy}benzyl)amino]-2-methylphenyl}methanesulfonamide]
89.4 | Cc1c(NS(C)(=O)=O)cccc1N(Cc1ccccc1)Cc1ccc(Oc2cccc(OC3CCN(C)C3)c2)cc1 (centres unmarked) [Example 292, N-{3-[benzyl(4-{3-[(1-methylpyrrolidin-3-yl)oxy]phenoxy}benzyl)amino]-2-methylphenyl}methanesulfonamide]
97 | Cc1c(NS(C)(=O)=O)cccc1N(Cc1ccc(Oc2ccc(Cl)c(OCC(=O)O)c2)cc1)Cc1ccccc1F [Example 306, (2-chloro-5-(4-(((2-fluorobenzyl)(2-methyl-3-((methylsulfonyl)amino)phenyl)amino)methyl)phenoxy)phenoxy)acetic acid]
97 | Cc1c(NS(C)(=O)=O)cccc1N(Cc1ccc(Oc2ccc(Cl)c(OCC(=O)O)c2)cc1)Cc1ccccc1Br [Example 307, (5-(4-(((2-bromobenzyl)(2-methyl-3-((methylsulfonyl)amino)phenyl)amino)methyl)phenoxy)-2-chlorophenoxy)acetic acid]
95.7 | Cc1c(NS(C)(=O)=O)cccc1N(Cc1ccc(Br)cc1)Cc1ccc(Oc2ccc(Cl)c(OCC(=O)O)c2)cc1 [Example 308, (5-(4-(((4-bromobenzyl)(2-methyl-3-((methylsulfonyl)amino)phenyl)amino)methyl)phenoxy)-2-chlorophenoxy)acetic acid]
96.4 | Cc1c(NS(C)(=O)=O)cccc1N(Cc1ccccc1)Cc1ccc(Oc2ccc(Cl)c(OCCCC(=O)NCCCC(=O)O)c2)cc1 [Example 319, 4-((4-(5-(4-((benzyl(2-methyl-3-((methylsulfonyl)amino)phenyl)amino)methyl)phenoxy)-2-chlorophenoxy)butanoyl)amino)butanoic acid]
